Measurements from ChEMBL document CHEMBL5113503, “Synthesis and biological evaluation of 4-(4-aminophenyl)-6-methylisoxazolo[3,4-b] pyridin-3-amine covalent inhibitors as potential agents for the treatment of acute myeloid leukemia” (Bioorg Med Chem, 2022).

Assays:
[1] = Cytotoxicity against HUVEC cells assessed as cell growth inhibition measured after 72 hrs by CCK8 assay; type: toxicity, cell-based; settings: human
[2] = Cytotoxicity against human K562 cells assessed as cell growth inhibition measured after 72 hrs by CCK8 assay; type: toxicity, cell-based
HL-60 = assay: Antiproliferative activity against human HL-60 cells harboring wildtype FLT3 assessed as cell growth inhibition measured after 72 hrs by CCK8 assay; settings: HL-60, 72 h
MV4-11 [3] = assay: Antiproliferative activity against human MV4-11 cells harboring FLT3-ITD mutant assessed as cell growth inhibition measured after 72 hrs by CCK8 assay; settings: MV4-11, 72 h
A549 = assay: Antiproliferative activity human A549 cells assessed as cell growth inhibition measured after 72 hrs by CCK8 assay; settings: A549, 72 h
HepG2 = assay: Antiproliferative activity human HepG2 cells assessed as cell growth inhibition measured after 72 hrs by CCK8 assay; settings: HepG2, 72 h
MOLM-13 = assay: Antiproliferative activity against human MOLM-13 cells harboring FLT3-ITD mutant assessed as cell growth inhibition measured after 72 hrs by CCK8 assay; settings: MOLM-13, 72 h
MV4-11 [4] = assay: Induction of apoptosis in human MV4-11 cells assessed as early apoptotic cells at 0.1 uM measured after 48 hrs by Annexin V-FITC/PI double staining based flow cytometric analysis (reference value: 2.04 %); type: functional
MV4-11 [5] = assay: Induction of apoptosis in human MV4-11 cells assessed as viable cells at 0.1 uM measured after 48 hrs by Annexin V-FITC/PI double staining based flow cytometric analysis (reference value: 80.26 %); type: functional; settings: read-out: Activity
MV4-11 [6] = assay: Induction of apoptosis in human MV4-11 cells assessed as necrotic cells at 0.1 uM measured after 48 hrs by Annexin V-FITC/PI double staining based flow cytometric analysis (reference value: 5.67 %); type: functional
MV4-11 [7] = assay: Induction of apoptosis in human MV4-11 cells assessed as late apoptotic cells at 0.1 uM measured after 48 hrs by Annexin V-FITC/PI double staining based flow cytometric analysis (reference value: 12.03 %); type: functional

Structure (SMILES)	IC50 at 72 h [1]	IC50 at 72 h [2]	IC50 (HL-60)	IC50 (MV4-11 [3])	IC50 (A549)	IC50 (HepG2)	IC50 (MOLM-13)	Activity (MV4-11 [4])	viability at 0.1 µM (MV4-11 [5])	Activity (MV4-11 [6])	Activity (MV4-11 [7])
C=CC(=O)Nc1ccc(C(=O)Nc2ccc(-c3cc(C)nc4noc(N)c34)cc2)c(C(F)(F)F)c1	> 10 µM	> 10 µM	3.68 µM	9.18 µM	> 10 µM	> 10 µM	6.9 µM	–	–	–	–
C=CC(=O)Nc1ccc(C(=O)Nc2ccc(-c3cc(C)nc4noc(N)c34)cc2)cc1F	> 10 µM	> 10 µM	> 10 µM	> 10 µM	> 10 µM	> 10 µM	> 10 µM	–	–	–	–
C=CC(=O)Nc1ccc(CCC(=O)Nc2ccc(-c3cc(C)nc4noc(N)c34)cc2)cc1	> 10 µM	> 10 µM	> 10 µM	1.34 µM	> 10 µM	> 10 µM	7.42 µM	–	–	–	–
C=CS(=O)(=O)Nc1ccc(C(=O)Nc2ccc(-c3cc(C)nc4noc(N)c34)cc2)cc1	> 10 µM	> 10 µM	> 10 µM	2.55 µM	> 10 µM	> 10 µM	> 10 µM	–	–	–	–
C=CC(=O)Nc1ccc(CC(=O)Nc2ccc(-c3cc(C)nc4noc(N)c34)cc2)cc1	> 10 µM	> 10 µM	8.53 µM	2.17 µM	> 10 µM	> 10 µM	6.23 µM	–	–	–	–
C=CC(=O)Nc1ccc(C(=O)Nc2ccc(-c3cc(C)nc4noc(N)c34)cc2)cc1	> 10 µM	> 10 µM	4.4 µM	1.59 µM	> 10 µM	> 10 µM	4.78 µM	–	–	–	–
C=CC(=O)Nc1ccc(C(=O)Nc2ccc(-c3cc(C)nc4noc(N)c34)cc2)cc1Cl	2.65 µM	7.52 µM	0.307 µM	0.675 µM	5.54 µM	2.61 µM	3.76 µM	–	–	–	–
C=CC(=O)Nc1cccc(NC(=O)Nc2ccc(-c3cc(C)nc4noc(N)c34)cc2)c1	> 10 µM	> 10 µM	> 10 µM	1.04 µM	> 10 µM	> 10 µM	2.27 µM	–	–	–	–
Cc1ccc(F)c(NC(=O)Nc2ccc(-c3cccc4[nH]nc(N)c34)cc2)c1 [LINIFANIB]	4.92 µM	6.96 µM	7.88 µM	0.0034 µM	8.34 µM	4 µM	0.019 µM	0.55%	33.4%	15.38%	50.7%
C=CC(=O)Nc1ccc(C(=O)Nc2ccc(-c3cc(C)nc4noc(N)c34)cc2)cc1C	3.23 µM	2.77 µM	0.448 µM	3.33 µM	> 10 µM	2.27 µM	> 10 µM	–	–	–	–
C=CC(=O)Nc1cccc(C(=O)Nc2ccc(-c3cc(C)nc4noc(N)c34)cc2)c1	> 10 µM	> 10 µM	3.95 µM	0.348 µM	> 10 µM	7.62 µM	0.703 µM	–	–	–	–
C=CC(=O)N1CCC(C(=O)Nc2ccc(-c3cc(C)nc4noc(N)c34)cc2)CC1	> 10 µM	> 10 µM	> 10 µM	> 10 µM	> 10 µM	> 10 µM	> 10 µM	–	–	–	–
C=CC(=O)Nc1ccc(C(=O)Nc2ccc(-c3cc(C)nc4noc(N)c34)cc2)cc1OC	> 10 µM	> 10 µM	> 10 µM	4.79 µM	> 10 µM	> 10 µM	> 10 µM	–	–	–	–
C=CC(=O)Nc1ccc(C(=O)Nc2ccc(-c3cc(C)nc4noc(N)c34)cc2)cc1Br	> 10 µM	> 10 µM	0.601 µM	1.22 µM	> 10 µM	2.68 µM	7.35 µM	–	–	–	–
Cc1cc(-c2ccc(NC(=O)Nc3ccc(Cl)c(C(F)(F)F)c3)cc2)c2c(N)onc2n1	> 10 µM	1.73 µM	> 10 µM	0.00089 µM	7.31 µM	> 10 µM	0.0046 µM	–	–	–	–
C=CC(=O)Nc1cccc(CC(=O)Nc2ccc(-c3cc(C)nc4noc(N)c34)cc2)c1	> 10 µM	> 10 µM	7.39 µM	1.26 µM	> 10 µM	> 10 µM	2.52 µM	–	–	–	–
